Experimental data reported in ChEMBL document CHEMBL2176932, “De novo cyclic pseudopeptides containing aza-β3-amino acids exhibiting antimicrobial activities” (J Med Chem, 2012).
In brackets after ≈: the same amount, converted by molar mass.

Experiments:
[1] = system: Enterococcus faecalis; test: Antibacterial activity against Enterococcus faecalis CIP 186 after 48 hrs by microtiter broth dilution method; format: functional; details: CIP 186, 48 h
[2] = system: Lactococcus garvieae; test: Antibacterial activity against Lactococcus garvieae ATCC 43921 after 48 hrs by microtiter broth dilution method; format: functional; details: ATCC 43921, 48 h
[3] = system: Aeromonas caviae; test: Antibacterial activity against Aeromonas caviae ATCC 15648 after 48 hrs by microtiter broth dilution method; format: functional; details: ATCC 15648, 48 h
[4] = system: Streptococcus equinus; test: Antibacterial activity against Streptococcus equinus ATCC 5623 after 48 hrs by microtiter broth dilution method; format: functional; details: ATCC 5623, 48 h
[5] = Toxicity in sheep RBC assessed as hemolytic activity at 100 uM after 1 hr; format: cell-based, Ovis aries, Erythrocyte; details: sheep red blood cells, read-out: Activity
[6] = Selectivity ratio of MHC for sheep RBC to MIC for Staphylococcus aureus ATCC 25923; format: functional
[7] = system: Klebsiella oxytoca; test: Antibacterial activity against Klebsiella oxytoca CIP 7932 after 48 hrs by microtiter broth dilution method; format: functional; details: CIP 7932, 48 h
[8] = system: Escherichia coli; test: Antibacterial activity against Escherichia coli ATCC 25922 after 48 hrs by microtiter broth dilution method; format: functional; details: ATCC 25922, 48 h
[9] = system: Listeria monocytogenes; test: Antibacterial activity against Listeria monocytogenes SOR 100 after 48 hrs by microtiter broth dilution method; format: functional; details: SOR 100, 48 h
[10] = system: Salmonella enterica; test: Antibacterial activity against Salmonella enterica ATCC 13076 after 48 hrs by microtiter broth dilution method; format: functional; details: ATCC 13076, 48 h
[11] = system: Pseudomonas aeruginosa; test: Antibacterial activity against Pseudomonas aeruginosa ATCC 27853 after 48 hrs by microtiter broth dilution method; format: functional; details: ATCC 27853, 48 h
[12] = Half life in bovine serum; format: ADME, cell-free, Bos taurus; details: cattle
[13] = system: Staphylococcus aureus; test: Antibacterial activity against Staphylococcus aureus ATCC 25923 after 48 hrs by microtiter broth dilution method; format: functional; details: ATCC 25923, 48 h
[14] = Toxicity in sheep RBC assessed as hemolytic activity after 1 hr; format: cell-based, Ovis aries, Erythrocyte; details: sheep red blood cells
[15] = system: Klebsiella aerogenes; test: Antibacterial activity against Enterobacter aerogenes ATCC 13048 after 48 hrs by microtiter broth dilution method; format: functional; details: ATCC 13048, 48 h
[16] = system: Micrococcus luteus; test: Antibacterial activity against Micrococcus luteus ATCC 10240 after 48 hrs by microtiter broth dilution method; format: functional; details: ATCC 10240, 48 h
[17] = Selectivity ratio of HC50 for sheep RBC to MIC for Staphylococcus aureus ATCC 25923; format: functional
[18] = system: Priestia megaterium; test: Antibacterial activity against Bacillus megaterium ATCC 10778 after 48 hrs by microtiter broth dilution method; format: functional; details: ATCC 10778, 48 h

| SMILES | MIC [1] [µM] | MIC [2] [µM] | MIC [3] [µM] | MIC [4] [µM] | hemolysis at 1 h, 100 µM [5] [%] | Selectivity ratio [6] | MIC [7] [µM] | MIC [8] [µM] | MIC [9] [µM] | MIC [10] [µM] | MIC [11] [µM] | half-life [12] [h] | MIC [13] [µM] | HC50 at 1 h [14] [µM] | MIC [15] [µM] | MIC [16] [µM] | Selectivity ratio [17] | MIC [18] [µM] |
| --- | --- | --- | --- | --- | --- | --- | --- | --- | --- | --- | --- | --- | --- | --- | --- | --- | --- | --- |
| CCCCCCCCCCCCN1CC(=O)N[C@@H](Cc2c[nH]c3ccccc23)C(=O)NN(Cc2cccc3ccccc23)CC(=O)N[C@@H](CCCCN)C(=O)NN(CCCCN)CC(=O)N[C@@H](CC2CCCCC2)C(=O)N1 | 12.5 (≈ 13.3 µg/mL) | 50 (≈ 53.2 µg/mL) | > 100 | 12.5 (≈ 13.3 µg/mL) | 62 | 0.12 | > 100 | > 100 | 12.5 (≈ 13.3 µg/mL) | > 100 | > 100 | > 2 | 25 (≈ 26.6 µg/mL) | 50 | > 100 | 12.5 (≈ 13.3 µg/mL) | 2 | 12.5 (≈ 13.3 µg/mL) |
| CC[C@H](C)[C@H](NC(=O)CN)C(=O)NCC(=O)N[C@@H](C)C(=O)N[C@H](C(=O)N[C@@H](CC(C)C)C(=O)N[C@@H](CCCCN)C(=O)N[C@H](C(=O)N[C@@H](CC(C)C)C(=O)N[C@H](C(=O)N[C@H](C(=O)NCC(=O)N[C@@H](CC(C)C)C(=O)N1CCC[C@H]1C(=O)N[C@@H](C)C(=O)N[C@@H](CC(C)C)C(=O)N[C@H](C(=O)N[C@@H](CO)C(=O)N[C@@H](Cc1c[nH]c2ccccc12)C(=O)N[C@H](C(=O)N[C@@H](CCCCN)C(=O)N[C@@H](CCCNC(=N)N)C(=O)N[C@@H](CCCCN)C(=O)N[C@@H](CCCNC(=N)N)C(=O)N[C@@H](CCC(N)=O)C(=O)N[C@@H](CCC(N)=O)C(N)=O)[C@@H](C)CC)[C@@H](C)CC)[C@@H](C)O)[C@@H](C)O)C(C)C)C(C)C [MELITTIN] | 12.5 (≈ 35.6 µg/mL) | 6.25 (≈ 17.8 µg/mL) | > 100 | 3.12 (≈ 8.88 µg/mL) | – | – | 25 (≈ 71.2 µg/mL) | – | – | 25 (≈ 71.2 µg/mL) | – | 0.06 | – | – | 12.5 (≈ 35.6 µg/mL) | 1.56 (≈ 4.44 µg/mL) | – | 6.25 (≈ 17.8 µg/mL) |
| CC(C)CN1CC(=O)N[C@@H](Cc2c[nH]c3ccccc23)C(=O)NN(CCCCN)CC(=O)N[C@@H](CCCCN)C(=O)NN(CCCCN)CC(=O)N[C@@H](Cc2c[nH]c3ccccc23)C(=O)N1 | > 100 | > 100 | > 100 | > 100 | 0 | – | > 100 | > 100 | > 100 | > 100 | > 100 | – | > 100 | > 100 | > 100 | 100 (≈ 91.5 µg/mL) | – | 25 (≈ 22.9 µg/mL) |
| CC(C)C[C@@H]1NC(=O)CN(Cc2ccc3ccccc3c2)NC(=O)[C@H](CCCCN)NC(=O)CN(CCCCN)NC(=O)CN(Cc2ccc3ccccc3c2)NC1=O | > 100 | > 100 | > 100 | 25 (≈ 20.2 µg/mL) | 0 | – | > 100 | > 100 | 100 (≈ 80.9 µg/mL) | 100 (≈ 80.9 µg/mL) | 100 (≈ 80.9 µg/mL) | – | > 100 | > 100 | > 100 | 6.25 (≈ 5.06 µg/mL) | – | 12.5 (≈ 10.1 µg/mL) |
| CC(C)CN1CC(=O)N[C@@H](Cc2c[nH]c3ccccc23)C(=O)NN(CC(C)C)CC(=O)N[C@@H](CCCCN)C(=O)NN(CCCCN)CC(=O)N[C@@H](Cc2c[nH]c3ccccc23)C(=O)N1 | > 100 | > 100 | > 100 | 100 (≈ 90 µg/mL) | 0 | – | > 100 | > 100 | > 100 | > 100 | > 100 | – | > 100 | > 100 | > 100 | 50 (≈ 45 µg/mL) | – | 25 (≈ 22.5 µg/mL) |
| CC(C)C[C@H]1NC(=O)CN(CCCCN)NC(=O)[C@H](CCCCN)NC(=O)CN(Cc2cccc3ccccc23)NC(=O)CN(CC(C)C)NC1=O | > 100 | > 100 | > 100 | 100 (≈ 72.5 µg/mL) | 0 | – | > 100 | > 100 | > 100 | > 100 | > 100 | – | > 100 | > 100 | > 100 | 50 (≈ 36.2 µg/mL) | – | 50 (≈ 36.2 µg/mL) |
| C[C@@H](O)[C@@H]1NC(=O)CN(CCCCN)NC(=O)[C@H](Cc2ccccc2)NC(=O)CN(Cc2cccc3ccccc23)NC(=O)[C@H](CO)NC(=O)CN(CCCCN)NC(=O)[C@H](CO)NC(=O)CN(CCCCN)NC1=O | > 100 | > 100 | > 100 | > 100 | 0 | – | > 100 | 100 (≈ 106 µg/mL) | > 100 | > 100 | 100 (≈ 106 µg/mL) | – | > 100 | > 100 | > 100 | > 100 | – | > 100 |
| CCCCCCCCN1CC(=O)N[C@@H](Cc2c[nH]c3ccccc23)C(=O)NN(CCCCCCCC)CC(=O)N[C@@H](CCCCN)C(=O)NN(CCCCN)CC(=O)N[C@@H](Cc2c[nH]c3ccccc23)C(=O)N1 | 12.5 (≈ 12.7 µg/mL) | 6.25 (≈ 6.33 µg/mL) | > 100 | 6.25 (≈ 6.33 µg/mL) | 55 | 1 | > 100 | > 100 | 3.12 (≈ 3.16 µg/mL) | > 100 | 25 (≈ 25.3 µg/mL) | > 2 | 6.25 (≈ 6.33 µg/mL) | 90 | > 100 | 3.12 (≈ 3.16 µg/mL) | 14.4 | 6.25 (≈ 6.33 µg/mL) |
| CC(C)C[C@@H]1NC(=O)CN(Cc2cccc3ccccc23)NC(=O)[C@H](CCCNC(=N)N)NC(=O)CN(CCCNC(=N)N)NC(=O)[C@H](CC(C)C)NC1=O | > 100 | > 100 | > 100 | 100 (≈ 76.6 µg/mL) | 0 | – | > 100 | > 100 | > 100 | > 100 | > 100 | – | > 100 | > 100 | > 100 | 25 (≈ 19.1 µg/mL) | – | 25 (≈ 19.1 µg/mL) |
| CC(C)CN1CC(=O)N[C@@H](Cc2c[nH]c3ccccc23)C(=O)NN(CC(C)C)CC(=O)N[C@@H](CCCCN)C(=O)NN(CCCCN)CC(=O)N[C@@H](CCCCN)C(=O)N1 | > 100 | > 100 | > 100 | > 100 | 0 | – | > 100 | > 100 | > 100 | > 100 | > 100 | – | > 100 | > 100 | > 100 | 100 (≈ 84.2 µg/mL) | – | 50 (≈ 42.1 µg/mL) |
